From PMC11784013, “Potassium molybdate blocks APN-dependent coronavirus entry by degrading receptor via PIK3C3-mediated autophagy” (Journal of Virology, 2024)

Columns and labels:
[1] = tested on: PIK3C3-BECN1-ATG14 complex; assay: Co-IP and confocal analysis of PtdIns3K complex assembly in ST cells; assay type: cell-based, porcine; conditions: 36 h
Experimental: Fig 8 PM promotes PIK3C3-BECN1-ATG14 complex assembly by enhancing PIK3C3 Ser249 phosphorylation. (A) ST cells were transfected with pCMV-Myc-PIK3C3 and pCDNA3.1-Flag-BECN1 for 12 h and then treated with PM (10 mM) for 36 h. The Co-IP was carried out by Flag or Myc Ab, followed by western blot analysis. (B) ST cells were transfected with pCDNA3.1-Flag-BECN 1 and pCDNA3.4-His-ATG14 for 12 h and treated with PM (10 mM) for 36 h. The Co-IP was performed with Flag or […] Ab, followed by western blot detection. (C–E) ST cells were transfected with pCMV-Myc-PIK3C3, pCDNA3.1-Flag-BECN1, and pCDNA3.4-His-ATG14 for 12 h, and PM (10 mM) was added to the cells for 36 h. Then Co-IP was performed with a Myc, Flag, and His Ab individually, and all IPs, input, and phosphorylation of PIK3C3 (Ser249), BECN1 (Ser14), and ATG14 (Ser29) were detected by western blot. (F) ST cells were transfected with pCMV-Myc-PIK3C3, pCDNA3.1-Flag-BECN1, and pCDNA3.4-His-ATG14 for 12 h, and PM (10 mM) was added to the cells for 36 h, which detected by IFA, scale bar: 20 µm. (G) Quantification of PIK3C3-BECN1-ATG14 complex (merged signal) from F using Image J software. (H) ST cells were transfected with pCMV-Myc-PIK3C3 or pCMV-Myc-PIK3C3 mutant, pCDNA3.1-Flag-BECN1 and pCDNA3.4-His-ATG14 for 12 h and then treated with PM (10 mM) for 36 h. Then Co-IP was performed with a Myc, Flag, and His Ab individually, and all IPs, input, and phosphorylation of PIK3C3 (Ser249), BECN1 (Ser14), and ATG14 (Ser29) were detected by western blot. Results are presented as mean ± SD of data from three independent experiments. ***, P ≤ 0.001.
Cotransfected cells were washed with cold PBS twice and lysed with NP40 lysis buffer (Beyotime, China, P0013F) supplemented with 1 mM PMSF (Beyotime, China, ST506) and phosphatase inhibitors (Beyotime, China, P1096). […] Immunoprecipitated proteins were detected by western blotting. […]

[2] = tested on: PRCV; assay: PRCV infection of porcine intestinal organoids (monolayer, apical-out); assay type: cell-based, porcine respiratory coronavirus; conditions: monolayer 24 h; apical-out 1 MOI, 48 h; IFA, RT-qPCR, TCID50, western blot
Experimental: Fig 2 PM restricts TGEV and PRCV infection in porcine intestinal organoids. (A) Intestinal organoids cultured in 96-well plate were incubated with different concentrations of PM for 24 h, which was tested by Cell Counting Kit 8. (B and C) The intestinal organoids monolayer was treated with indicated PM and infected with TGEV Miller (0.1 MOI) for 24 h, which was measured by IFA (B), scale bar: 50 µm, RT-qPCR, TCID50, and western blot (C). (D) Apical-out intestinal organoids were treated with indicated PM and infected TGEV Miller (1 MOI) for 48 h, which was determined by RT-qPCR, TCID50, and western blot. (E and F) The intestinal organoids monolayer was treated with different concentrations of PM and infected with PRCV for 24 h, which was determined by IFA (E), scale bar: 50 µm, RT-qPCR, TCID50, and western blot (F). (G) Apical-out intestinal organoids were treated with indicated PM and infected PRCV (1 MOI) for 48 h, which was detected by RT-qPCR, TCID50, and western blot. Results are presented as mean ± SD of data from three independent experiments. **, P ≤ 0.01; ***, P ≤ 0.001.
Porcine 3D ileum organoids coated with Matrigel for 1 week were dissociated by incubation in 5 mM cold EDTA buffer on a rotating platform for 1 h at 4°C. […]

`[K+].[K+].[O]=[Mo](=[O])([O-])[O-]` [PM, potassium molybdate] was tested, and the “PIK3C3 Ser249 phosphorylation” value ([1]; ST cells co-transfected with Myc-PIK3C3, Flag-BECN1, His-ATG14, PM 10 mM) was “upregulation of PIK3C3 Ser249 phosphorylation”, the “colocalization of Myc-PIK3C3, Flag-BECN1 and His-ATG14 (confocal microscopy)” value ([1]; ST cells, PM 10 mM) was “enhanced the colocalization” and the “interaction between Myc-PIK3C3 and Flag-BECN1 (Co-IP)” value ([1]; ST cells, PM 10 mM) was “increased after PM treatment”. The “PRCV infection in organoid monolayer and apical-out organoids” value [2] was “the same phenotypes were found”.
